Data taken from ChEMBL document CHEMBL1138200, “Dihydropyrrolopyrazole transforming growth factor-beta type I receptor kinase domain inhibitors: a novel benzimidazole series with selectivity versus transforming growth factor-beta type II receptor kinase and mixed lineage kinase-7” (J Med Chem, 2006).

Key:
TGF-beta receptor type-1 [1] = target: T1, TGF-beta receptor type-1 (Homo sapiens, UniProt P36897); test: Inhibition of TGFbeta R1 induced transcriptional activation of p3TP-Lux in mink Mv1Lu lung cells; type: functional, cell-based, Mustela
T1 sequence (P36897 whole entry): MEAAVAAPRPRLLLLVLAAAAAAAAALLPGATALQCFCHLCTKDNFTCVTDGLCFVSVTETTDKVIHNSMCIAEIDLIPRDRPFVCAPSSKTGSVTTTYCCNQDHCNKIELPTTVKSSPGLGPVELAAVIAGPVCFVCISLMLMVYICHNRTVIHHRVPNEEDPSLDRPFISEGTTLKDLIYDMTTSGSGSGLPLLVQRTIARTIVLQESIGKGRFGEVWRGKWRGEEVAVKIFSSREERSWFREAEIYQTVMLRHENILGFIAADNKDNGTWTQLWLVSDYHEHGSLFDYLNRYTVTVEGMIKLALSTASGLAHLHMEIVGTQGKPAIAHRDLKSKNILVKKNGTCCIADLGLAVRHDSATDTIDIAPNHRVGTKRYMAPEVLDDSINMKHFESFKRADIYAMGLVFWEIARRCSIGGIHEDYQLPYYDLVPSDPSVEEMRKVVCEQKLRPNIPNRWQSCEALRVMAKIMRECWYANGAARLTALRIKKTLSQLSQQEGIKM

TGF-beta receptor type-1 [2] = target: T1, TGF-beta receptor type-1; test: Inhibition of recombinant human TGFbeta R1 expressed in Sf9 cells
[3] = target: Mitogen-activated protein kinase kinase kinase 20 (Homo sapiens, UniProt Q9NYL2); test: Inhibition of MLK7
TGF-beta receptor type-2 = TGF-beta receptor type-2 (Homo sapiens, UniProt P37173); test: Inhibition of recombinant human TGFbeta R2 expressed in Sf9 cells
[4] = Inhibitory activity against TGF-beta-stimulated proliferation in NIH3T3 cells; type: functional, cell-based; details: Mus musculus
Cytochrome P450 2D6 = Cytochrome P450 2D6 (Homo sapiens, UniProt P10635); test: Inhibition of cytochrome P450 2D6; type: ADME
Cytochrome P450 2D6, sequence (P10635 whole entry): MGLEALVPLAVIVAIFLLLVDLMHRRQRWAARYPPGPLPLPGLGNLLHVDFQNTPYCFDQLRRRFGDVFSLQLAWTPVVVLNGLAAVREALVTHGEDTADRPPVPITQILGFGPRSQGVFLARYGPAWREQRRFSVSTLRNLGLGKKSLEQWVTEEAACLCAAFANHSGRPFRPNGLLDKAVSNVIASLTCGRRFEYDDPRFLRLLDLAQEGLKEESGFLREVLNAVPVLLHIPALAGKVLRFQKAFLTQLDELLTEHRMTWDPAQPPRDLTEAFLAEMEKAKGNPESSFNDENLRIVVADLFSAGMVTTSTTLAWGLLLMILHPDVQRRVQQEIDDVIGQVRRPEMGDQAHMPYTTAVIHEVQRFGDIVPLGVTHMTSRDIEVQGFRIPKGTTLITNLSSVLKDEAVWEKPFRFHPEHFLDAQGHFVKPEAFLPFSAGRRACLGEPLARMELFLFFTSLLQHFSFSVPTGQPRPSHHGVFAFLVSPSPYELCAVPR

TGF-beta receptor type-2, sequence (P37173 whole entry): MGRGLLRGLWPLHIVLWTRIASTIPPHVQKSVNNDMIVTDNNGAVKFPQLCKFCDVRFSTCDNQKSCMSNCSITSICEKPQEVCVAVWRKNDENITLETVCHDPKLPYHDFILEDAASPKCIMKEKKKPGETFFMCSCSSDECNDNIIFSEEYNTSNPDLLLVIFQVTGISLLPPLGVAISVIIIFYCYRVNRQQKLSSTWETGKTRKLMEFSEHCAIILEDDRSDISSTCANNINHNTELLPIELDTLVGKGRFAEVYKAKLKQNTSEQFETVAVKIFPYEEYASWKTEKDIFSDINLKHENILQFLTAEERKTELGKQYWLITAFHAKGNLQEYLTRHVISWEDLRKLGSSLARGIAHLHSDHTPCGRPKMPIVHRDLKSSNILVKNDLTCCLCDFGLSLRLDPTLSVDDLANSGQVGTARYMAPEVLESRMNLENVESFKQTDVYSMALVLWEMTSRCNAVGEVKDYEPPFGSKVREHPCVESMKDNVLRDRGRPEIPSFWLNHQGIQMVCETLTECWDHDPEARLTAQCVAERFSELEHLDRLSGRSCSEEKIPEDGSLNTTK
Mitogen-activated protein kinase kinase kinase 20, sequence (Q9NYL2 whole entry): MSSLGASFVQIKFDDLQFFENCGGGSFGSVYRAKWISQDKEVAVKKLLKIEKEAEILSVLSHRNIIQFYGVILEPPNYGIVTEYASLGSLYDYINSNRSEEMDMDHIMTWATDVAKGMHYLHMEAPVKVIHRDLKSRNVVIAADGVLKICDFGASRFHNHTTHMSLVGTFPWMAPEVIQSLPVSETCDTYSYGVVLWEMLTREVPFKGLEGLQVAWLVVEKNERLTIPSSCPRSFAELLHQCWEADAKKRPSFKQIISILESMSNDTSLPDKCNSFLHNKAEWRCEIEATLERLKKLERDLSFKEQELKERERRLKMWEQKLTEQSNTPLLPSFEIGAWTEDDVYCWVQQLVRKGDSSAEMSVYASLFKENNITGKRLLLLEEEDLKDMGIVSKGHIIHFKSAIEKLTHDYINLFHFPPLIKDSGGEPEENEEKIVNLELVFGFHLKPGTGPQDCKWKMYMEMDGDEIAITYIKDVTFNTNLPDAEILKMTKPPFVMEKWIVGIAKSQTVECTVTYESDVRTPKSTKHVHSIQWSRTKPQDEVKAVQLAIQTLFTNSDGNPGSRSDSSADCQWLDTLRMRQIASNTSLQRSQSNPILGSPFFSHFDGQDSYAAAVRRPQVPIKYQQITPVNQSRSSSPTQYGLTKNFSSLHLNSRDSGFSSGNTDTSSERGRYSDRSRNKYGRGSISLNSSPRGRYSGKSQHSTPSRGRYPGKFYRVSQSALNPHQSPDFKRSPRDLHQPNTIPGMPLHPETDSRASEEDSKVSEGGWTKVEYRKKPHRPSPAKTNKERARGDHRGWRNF

| SMILES | IC50 (TGF-beta receptor type-1 [1]) | IC50 (TGF-beta receptor type-1 [2]) | IC50 [3] | IC50 (TGF-beta receptor type-2) | IC50 [4] | IC50 (Cytochrome P450 2D6) |
| --- | --- | --- | --- | --- | --- | --- |
| Cc1cccc(-c2nn3c(c2-c2ccc4c(c2)ncn4CCCOC2CCCCO2)CCC3)n1 (stereo not drawn) | 2430 nM | 1830 nM | > 20000 nM | 14500 nM | – | – |
| CN(C)CCCn1cnc2ccc(-c3c(-c4ccccn4)nn4c3CCC4)cc21 | 104 nM | 398 nM | 15900 nM | > 20000 nM | 1000 nM | – |
| Cn1cnc2cc(-c3c(-c4ccccn4)nn4c3CCC4)ccc21 | 1370 nM | 4740 nM | > 20000 nM | 19600 nM | 1620 nM | – |
| OCCCn1cnc2ccc(-c3c(-c4ccccn4)nn4c3CCC4)cc21 | 79 nM | 79 nM | 708 nM | 352 nM | 371 nM | – |
| CCN(CC)CCCn1cnc2ccc(-c3c(-c4cccc(C)n4)nn4c3CCC4)cc21 | 100 nM | 122 nM | > 20000 nM | > 20000 nM | 274 nM | – |
| c1ccc(-c2nn3c(c2-c2ccc4[nH]ccc4c2)CCC3)nc1 | – | > 20000 nM | > 20000 nM | > 20000 nM | – | – |
| Cc1cccc(-c2nn3c(c2-c2ccc4ncn(CCCO)c4c2)CCC3)n1 | 78 nM | 41 nM | 2810 nM | 690 nM | 371 nM | – |
| c1ccc(-c2nn3c(c2-c2ccc4[nH]cnc4c2)CCC3)nc1 | – | – | – | 8730 nM | – | – |
| c1ccc(-c2nn3c(c2-c2ccc4c(c2)ncn4CCCOC2CCCCO2)CCC3)nc1 (stereo not drawn) | 5890 nM | 6580 nM | > 20000 nM | > 20000 nM | 4700 nM | – |
| Cn1cnc2ccc(-c3c(-c4ccccn4)nn4c3CCC4)cc21 | 8 nM | 75 nM | 1310 nM | 395 nM | 32 nM | – |
| Cc1cccc(-c2nn3c(c2-c2ccc4ncn(C)c4c2)CCC3)n1 | 29 nM | 22 nM | 2340 nM | 668 nM | 96 nM | – |
| Cc1cccc(-c2nn3c(c2-c2ccc4ncn(CCCN5CCCC5)c4c2)CCC3)n1 | 117 nM | 74 nM | > 20000 nM | > 20000 nM | 249 nM | – |
| c1ccc(-c2n[nH]cc2-c2ccnc3ccccc23)nc1 | – | – | 1400 nM | 400 nM | 81 nM | – |
| Cc1cccc(-c2nn3c(c2-c2ccc4ncn(CCCN5CCCCC5)c4c2)CCC3)n1 | 51 nM | 155 nM | > 20000 nM | > 20000 nM | 150 nM | – |
| Cc1cccc(-c2nn3c(c2-c2ccc4c(ccn4C)c2)CCC3)n1 | – | 4100 nM | > 20000 nM | > 20000 nM | – | – |
| c1ccc(-c2nn3c(c2-c2ccc4ncn(CCCN5CCCC5)c4c2)CCC3)nc1 | 226 nM | 246 nM | 4880 nM | 10800 nM | 854 nM | – |
| Cc1cccc(-c2nn3c(c2-c2ccc4ncn(CCCN5CCOCC5)c4c2)CCC3)n1 | 186 nM | 69 nM | 8480 nM | 19800 nM | 277 nM | – |
| Cc1cccc(-c2nn3c(c2-c2ccc4nc[nH]c4c2)CCC3)n1 | 15 nM | 47 nM | 15900 nM | 1300 nM | 42 nM | 27000 nM |
| Cn1ccc2cc(-c3c(-c4ccccn4)nn4c3CCC4)ccc21 | – | 12200 nM | 16600 nM | > 20000 nM | – | – |
| Cc1cccc(-c2nn3c(c2-c2ccc4ncn(CCCN(C)C)c4c2)CCC3)n1 | 53 nM | 85 nM | > 20000 nM | > 20000 nM | 139 nM | – |
